# Data from patent US20260200928A1, “THERAPEUTIC COMPOUNDS” (Sanofi, priority 2022, published 2026).
# pIC50: −log10 of the molar value.
# Biological target: T1, human IL-17A (Homo sapiens, UniProt Q16552)
# T1 construct: purchased R&D Systems 7955-IL/CF
# T1 sequence (Q16552 24-155): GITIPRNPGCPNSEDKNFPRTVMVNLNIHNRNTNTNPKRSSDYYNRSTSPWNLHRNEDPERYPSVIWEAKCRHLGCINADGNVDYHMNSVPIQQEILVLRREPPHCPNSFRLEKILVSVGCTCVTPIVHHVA
# Assay: IL-17A AlphaLISA competition assay (block of IL-17A binding to its receptor IL-17RA)
# Settings: mean IC50 (n≥2), block of IL-17A binding to IL-17RA
# Outline: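 Bead-based AlphaLISA competition in PBS with 0.05% Tween-20 and 0.1% BSA: compound first meets human IL-17A (7.5 nM stock) for 30 min, then IL-17RA/Fc (5 nM stock) for 90 min, all at room temperature, before acceptor/donor bead capture. IC50 fitted 4-parameter, DMSO and 4 μM reference inhibitor as controls; at least duplicate.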
row,pIC50,Compound
1,7.28,"CC(C)n1nccc1C(=O)N[C@H](C(=O)Nc1cc(C[C@H]2C[C@@H](C(F)(F)F)NC2=O)ccn1)[C@H]1CC[C@H](C)CC1 [Example 156, 1-isopropyl-N—((S)-1-((1r,4S)-4-methylcyclohexyl)-2-oxo-2-((4-(((3S,5S)-2-oxo-5-(trifluoromethyl)pyrrolidin-3-yl)methyl)pyridin-2-yl)amino)ethyl)-1H-pyrazole-5-carboxamide]"
2,6.80,"O=C(N[C@H](C(=O)Nc1cc(CN2C[C@@H](C(F)(F)F)NC2=O)ccn1)C(C1CC1)C1CC1)c1nonc1C1CC1 [Example 16, 4-cyclopropyl-N-((S)-1,1-dicyclopropyl-3-oxo-3-((4-(((S)-2-oxo-4-(trifluoromethyl)imidazolidin-1-yl)methyl)pyridin-2-yl)amino)propan-2-yl)-1,2,5-oxadiazole-3-carboxamide]"
3,5.68,"Cc1cnn(C)c1Cc1ccnc(NC(=O)[C@@H](NC(=O)OC(C)(C)C)[C@H]2CC[C@H](C)CC2)c1 [Example 51, tert-butyl ((S)-2-((4-((1,4-dimethyl-1H-pyrazol-5-yl)methyl)pyridin-2-yl)amino)-1-((1r,4S)-4-methylcyclohexyl)-2-oxoethyl)carbamate]"
4,7.52,"CCc1conc1C(=O)NC(C(=O)Nc1cc([C@@H](C(C)C)N2C[C@@H](C(F)(F)F)NC2=O)ccn1)C1CCC(F)(F)CC1 (stereo in doubt) [Example 159, N—((S)-1-(4,4-difluorocyclohexyl)-2-((4-((R)-2-methyl-1-((S)-2-oxo-4-(trifluoromethyl)imidazolidin-1-yl)propyl)pyridin-2-yl)amino)-2-oxoethyl)-4-ethylisoxazole-3-carboxamide]"
5,7.51,"COC[C@H](c1ccnc(NC(=O)[C@H](COC(C)(C)C(F)(F)F)NC(=O)c2nonc2C)c1)N1C[C@@H](C(F)(F)F)NC1=O [Example 268, N-((S)-1-((4-((S)-2-methoxy-1-((S)-2-oxo-4-(trifluoromethyl)imidazolidin-1-yl)ethyl)pyridin-2-yl)amino)-1-oxo-3-((1,1,1-trifluoro-2-methylpropan-2-yl)oxy)propan-2-yl)-4-methyl-1,2,5-oxadiazole-3-carboxamide]"
6,7.18,"C[C@H]1CC[C@H]([C@@H](NC(=O)c2nonc2C2CC2)C(=O)Nc2cc(C(NC(=O)CCC(F)(F)F)C3CC3)ccn2)CC1 (stereo partly drawn) [Example 235, 4-Cyclopropyl-N-((1S)-2-((4-(cyclopropyl(4,4,4-trifluorobutanamido)-methyl)pyridin-2-yl)amino)-1-((1r,4S)-4-methylcyclohexyl)-2-oxoethyl)-1,2,5-oxadiazole-3-carboxamide]"
7,6.20,"COCC(c1ccnc(NC(=O)[C@@H](NC(=O)c2nonc2C2CC2)C2CCC(F)(F)CC2)c1)[C@@H]1C[C@@H](C(F)(F)F)NC1=O (single isomer, unassigned) [Example 184, 4-Cyclopropyl-N—((S)-1-(4,4-difluorocyclohexyl)-2-((4-((R or S)-2-methoxy-1-((3S,5S)-2-oxo-5-(trifluoromethyl)pyrrolidin-3-yl)ethyl)pyridin-2-yl)amino)-2-oxoethyl)-1,2,5-oxadiazole-3-carboxamide]"
8,5.17,"O=C(NCc1ccccc1)N[C@H](C(=O)Nc1cc(CN2C[C@@H](C(F)(F)F)NC2=O)ccn1)C1CCC(F)(F)CC1 [Example 99, (S)-2-(3-Benzylureido)-2-(4,4-difluorocyclohexyl)-N-(4-(((S)-2-oxo-4-(trifluoromethyl)imidazolidin-1-yl)methyl)pyridin-2-yl)acetamide]"
9,5.58,"CC(C)(C)OC(=O)N[C@H](C(=O)Nc1cc(C(NC(=O)CCC(F)(F)F)C2CC2)ccn1)C1CCC(F)(F)CC1 (single isomer, unassigned) [Example 74]"
10,7.02,"O=C(CCC(F)(F)F)NC(c1ccnc(NC(=O)[C@@H](NC(=O)c2nonc2C2CC2)C2CCC(F)(F)CC2)c1)C1CC1 (stereo partly drawn) [Example 96, 4-Cyclopropyl-N-((1S)-2-((4-(cyclopropyl(4,4,4-trifluorobutanamido)-methyl)pyridin-2-yl)amino)-1-(4,4-difluorocyclohexyl)-2-oxoethyl)-1,2,5-oxadiazole-3-carboxamide]"
11,6.47,"COCC(c1ccnc(NC(=O)[C@@H](NC(=O)c2nnnn2C)[C@H]2CC[C@H](C)CC2)c1)N1C[C@@H](C(F)(F)F)NC1=O (single isomer, unassigned) [Example 93]"
12,7.64,"CC[C@H](c1ccnc(NC(=O)[C@@H](NC(=O)c2nonc2C2CC2)C2CCC(F)(F)CC2)c1)N1C[C@@H](C(F)(F)F)NC1=O [Example 212, 4-cyclopropyl-N-((S)-1-(4,4-difluorocyclohexyl)-2-oxo-2-((4-((R)-1-((S)-2-oxo-4-(trifluoromethyl)imidazolidin-1-yl)propyl)pyridin-2-yl)amino)ethyl)-1,2,5-oxadiazole-3-carboxamide]"
13,7.64,"COCC(c1ccnc(NC(=O)[C@@H](NC(=O)c2nocc2C2CC2)[C@H]2CC[C@H](C)CC2)c1)N1C[C@@H](C(F)(F)F)NC1=O (single isomer, unassigned) [Example 121]"
14,6.17,"COCC(NC(=O)CCC(F)(F)F)c1ccnc(NC(=O)[C@@H](NC(=O)OC(C)(C)C)C2CCC(F)(F)CC2)c1 (single isomer, unassigned; diastereomer 1) [Example 131]"
15,5.11,"O=C(CCC(F)(F)F)NC(c1ccnc(NC(=O)[C@@H](NC(=O)c2cocn2)C2CCC(F)(F)CC2)c1)C1CC1 (stereo partly drawn) [Example 109, N-((1S)-2-((4-(cyclopropyl(4,4,4-trifluorobutanamido)methyl)pyridin-2-yl)amino)-1-(4,4-difluorocyclohexyl)-2-oxoethyl)oxazole-4-carboxamide]"
16,6.70,"Cn1nccc1C(=O)N[C@H](C(=O)Nc1cc(CN2C[C@@H](C(F)(F)F)NC2=O)ccn1)C(C1CC1)C1CC1 [Example 15, N-((S)-1,1-dicyclopropyl-3-oxo-3-((4-(((S)-2-oxo-4-(trifluoromethyl)imidazolidin-1-yl)methyl)pyridin-2-yl)amino)propan-2-yl)-1-methyl-1H-pyrazole-5-carboxamide]"
17,7.35,"COC[C@H](c1ccnc(NC(=O)[C@H](COC(C)(C)C(F)(F)F)NC(=O)c2nocc2C)c1)N1C[C@@H](C(F)(F)F)NC1=O [Example 265, N—((S)-1-((4-((S)-2-methoxy-1-((S)-2-oxo-4-(trifluoromethyl)-imidazolidin-1-yl)ethyl)pyridin-2-yl)amino)-1-oxo-3-((1,1,1-trifluoro-2-methylpropan-2-yl)oxy)propan-2-yl)-4-methylisoxazole-3-carboxamide]"
18,5.90,"COCC(NC(=O)CCC(F)(F)F)c1ccnc(NC(=O)[C@@H](NC(=O)c2nonc2C2CC2)C2CCC(F)(F)CC2)c1 (single isomer, unassigned) [Example 134]"
19,7.54,"CCn1nccc1C(=O)N[C@H](C(=O)Nc1cc(C[C@H]2C[C@@H](C(F)(F)F)NC2=O)ccn1)[C@H]1CC[C@H](C)CC1 [Example 155, 1-ethyl-N—((S)-1-((1r,4S)-4-methylcyclohexyl)-2-oxo-2-((4-(((3S,5S)-2-oxo-5-(trifluoromethyl)pyrrolidin-3-yl)methyl)pyridin-2-yl)amino)ethyl)-1H-pyrazole-5-carboxamide]"
20,7.01,"COC[C@H](c1ccnc(NC(=O)C(NC(=O)c2conc2C)C2CCC(F)CC2)c1)N1C[C@@H](C(F)(F)F)NC1=O (single isomer, unassigned) [Example 283]"
21,6.60,"COCC(NC(=O)CCC(F)(F)F)c1ccnc(NC(=O)[C@@H](NC(=O)c2ccnn2C)C2CCC(F)(F)CC2)c1 (single isomer, unassigned) [Example 136]"
22,7.33,"CCn1nccc1C(=O)NC(C(=O)Nc1cc(C(COC)NC(=O)CCC(F)(F)F)ccn1)C1CCC(C)CC1 [Example 244, 1-ethyl-N-((1S)-2-((4-(2-methoxy-1-(4,4,4-trifluorobutanamido)ethyl)pyridin-2-yl)amino)-1-((1r,4S)-4-methylcyclohexyl)-2-oxoethyl)-1H-pyrazole-5-carboxamide]"
23,7.49,"CCC(c1ccnc(NC(=O)C(NC(=O)c2nonc2C2CC2)C2CCC(C)CC2)c1)N1CC(C(F)(F)F)NC1=O [Example 257, 4-cyclopropyl-N-((S)-1-((1r,4S)-4-methylcyclohexyl)-2-oxo-2-((4-((R)-1-((S)-2-oxo-4-(trifluoromethyl)imidazolidin-1-yl)propyl)pyridin-2-yl)amino)ethyl)-1,2,5-oxadiazole-3-carboxamide]"
24,7.14,"CCn1nccc1C(=O)NC(C(=O)Nc1cc([C@@H](COC)N2C[C@@H](C(F)(F)F)NC2=O)ccn1)C1CCC(C)(F)CC1 (single isomer, unassigned) [Example 299]"
25,6.64,"CC(C)n1nccc1C(=O)NC(C(=O)Nc1cc(C(NC(=O)CCC(F)(F)F)C2CC2)ccn1)C1CCC(F)(F)CC1 (stereo not shown) [Example 48, N-(2-((4-(cyclopropyl(4,4,4-trifluorobutanamido)methyl)pyridin-2-yl)amino)-1-(4,4-difluorocyclohexyl)-2-oxoethyl)-1-isopropyl-1H-pyrazole-5-carboxamide]"
26,7.92,"COCC(c1ccnc(NC(=O)[C@@H](NC(=O)c2ccnn2C)[C@H]2CC[C@H](C)CC2)c1)N1C[C@@H](C(F)(F)F)NC1=O (single isomer, unassigned) [Example 85]"
27,5.08,"COCC(NC(=O)CCC(F)(F)F)c1ccnc(NC(=O)[C@@H](NC(=O)c2nccn2C(C)C)C2CCC(F)(F)CC2)c1 (single isomer, unassigned) [Example 148]"
28,5.31,"COCC(c1ccnc(NC(=O)[C@@H](NC(=O)c2nc(Br)ccc2C)[C@H]2CC[C@H](C)CC2)c1)N1C[C@@H](C(F)(F)F)NC1=O (single isomer, unassigned) [Example 94]"
